According to patent US20100076022A1, “NOVEL POLYMORPHS OF RIMONABANT” (HETERO DRUGS LIMITED, priority 2006, published 2010):

Key:
[1] = stability of the solid form over time; format: physicochemical; conditions: test conditions not given
[2] = dissolution rate of the solid form; format: physicochemical; conditions: amorphous form compared with crystalline form; test conditions not given

stability [1] | dissolution rate [2] | Compound
stable over time |  | Cc1c(C(=O)NN2CCCCC2)nn(-c2ccc(Cl)cc2Cl)c1-c1ccc(Cl)cc1.O [crystalline rimonabant hydrate]
highly stable | better dissolution rate | Cc1c(C(=O)NN2CCCCC2)nn(-c2ccc(Cl)cc2Cl)c1-c1ccc(Cl)cc1 [amorphous rimonabant form]
